Results: PMC12196455, “Effect of Tegoprazan on Tacrolimus and Mycophenolate Levels in Kidney Transplant Recipients: A Randomized Controlled Study Using a Smart Trial Platform” (Pharmaceuticals, 2025)

Tests used:
[1] = Mycophenolate (mycophenolic acid) trough level (12 h post-dose, PETINIA immunoassay) in the randomized trial of tegoprazan vs pantoprazole; assay type: in vivo, human (kidney transplant recipients); conditions: for Mycophenolate trough level: mean ± SD
Excerpt: (§1) This study was a prospective, open-label, randomized controlled trial conducted on KTRs receiving tacrolimus, mycophenolate, and steroids. This study was registered at the Clinical Research Information Service (CRIS), Republic of Korea (Registration No. KCT 0010481, registration date: 20 May 2025). Data analysis took place at Kyungpook National University Hospital, Republic of Korea, from August 2022 to May 2023. The trial adhered to the approval guidelines of the Institutional Review Board of Kyungpook National University Hospital (IRB No. 2022-02-013, approval date: 31 March 2022).
(§2) Patients were randomly assigned to either the P-CAB (tegoprazan 50 mg) group or the PPI (pantoprazole 20 mg) group. Enrolled KTRs were scheduled for four visits at baseline, 4, 8, and 12 weeks post-randomization. The dosage of immunosuppressants remained unchanged throughout the 12-week study period. Blood tests, including measurements of immunosuppressant trough levels, serum creatinine levels, estimated glomerular filtration rate (eGFR), and vital signs, were conducted at each visit.
(§3) The primary outcome was to compare changes in drug concentrations of tacrolimus and mycophenolate following the administration of tegoprazan in KTRs.
(§4) Trough levels of tacrolimus and mycophenolate were measured at 12 h post-dose, following standard clinical practice for therapeutic drug monitoring in transplant recipients. Blood samples were collected at scheduled morning visits, and the 12 h interval was confirmed using electronic pillbox adherence data or patient interviews. Tacrolimus concentrations were measured using the Dimension® TAC Flex® reagent cartridge (Siemens Healthcare Diagnostics Inc., Newark, NJ, USA) on the Siemens Dimension® Integrated Chemistry System, employing a homogeneous chemiluminescent immunoassay (CLIA) method. Mycophenolic acid concentrations were measured using the Dimension® MPA Flex® reagent cartridge (Siemens Healthcare Diagnostics Inc., Newark, USA) on the same system, based on a particle-enhanced turbidimetric inhibition immunoassay (PETINIA) method. All assays were conducted in the Department of Laboratory Medicine at the study hospital.

[2] = Time in therapeutic range (TTR) analysis of tacrolimus and mycophenolate; assay type: in vivo, human (kidney transplant recipients); conditions: across all visits; result in words
Description: Continuous variables were expressed as mean ± standard deviation, while categorical variables were presented as numbers and percentages. For normally distributed data, t-tests were utilized; for non-normally distributed data, the Mann–Whitney U test was applied. Intragroup variations between baseline and 12 weeks were analyzed using paired t-tests. Differences in the frequency of transplant outcomes were assessed using the χ^2 test or Fisher’s exact test. Differences in GI symptom questionnaire scores, assessed via e-diary surveys, were analyzed using t-tests or the Mann–Whitney U test, as appropriate. We conducted a TTR analysis for both tacrolimus and mycophenolate to evaluate the potential effects of tegoprazan on immunosuppressant stability. The predefined therapeutic range was set at […] for tacrolimus and at 1–3.5 µg/mL for mycophenolate. TTR was calculated as the proportion of time each drug level remained within the therapeutic window across the study period. All statistical analyses were performed using IBM SPSS Statistics 25 for Windows, […]. A p-value of <0.05 was considered statistically significant.

[3] = result in words, cited from earlier work
[4] = GI symptom questionnaires (GERD-HRQL, RDQ) via electronic diary app; assay type: in vivo, human (kidney transplant recipients); design: key to GERD-HRQL score: sum of 10 items each scored 0-5; higher = poorer quality of life; conditions: mean ± SD
Description: Changes in GI symptoms were measured and recorded using a self-developed electronic diary app installed on participants’ mobile phones. This app facilitated the assessment of GI symptoms through the Gastroesophageal Reflux Disease–Health-Related Quality of Life (GERD-HRQL) and Reflux Disease Questionnaire (RDQ). The GERD-HRQL scale comprises 10 items, addressing both GI symptoms and the patient’s overall condition. Each item is scored on a scale from 0 to 5, with higher scores indicating a poorer quality of life. The RDQ is a 6-item self-administered questionnaire designed to evaluate the severity and frequency of heartburn sensation, gastric acid regurgitation, and dyspepsia.
The secondary outcome included evaluating transplant outcomes and GI symptoms using questionnaires. The transplant outcomes assessed were changes in eGFR, biopsy-proven acute rejection (BPAR), allograft loss, and de novo DSA during the study period. De novo DSA was defined as the new appearance of antibodies against mismatched donor human leukocyte antigen (HLA) not present at baseline.

[5] = Adverse event monitoring; assay type: in vivo, human (kidney transplant recipients); conditions: 12 weeks; for Overall incidence of AEs: p = 0.032 between groups
Description: Safety evaluations were conducted through comprehensive monitoring, including physical examinations, clinical laboratory tests, vital signs, and the documentation of adverse events (AEs). Participants were encouraged to voluntarily report AEs regularly throughout the study.

[6] = Transplant outcomes (eGFR, de novo DSA, BPAR, allograft loss); assay type: in vivo, human (kidney transplant recipients); conditions: for eGFR: mean ± SD; for Allograft Loss / BPAR: during the 12-week study period
Description: Patients were randomly assigned to either the P-CAB (tegoprazan 50 mg) group or the PPI (pantoprazole 20 mg) group. Enrolled KTRs were scheduled for four visits at baseline, 4, 8, and 12 weeks post-randomization. The dosage of immunosuppressants remained unchanged throughout the 12-week study period. Blood tests, including measurements of immunosuppressant trough levels, serum creatinine levels, estimated glomerular filtration rate (eGFR), and vital signs, were conducted at each visit. The collected data included patient demographics such as gender, age, height, weight, blood tacrolimus, mycophenolate concentrations, kidney function, liver function tests, allograft loss, and acute rejection episodes. We collected DSA information. DSA was identified using the Luminex single-antigen assay (LSA). […] The secondary outcome included evaluating transplant outcomes and GI symptoms using questionnaires. The transplant outcomes assessed were changes in eGFR, biopsy-proven acute rejection (BPAR), allograft loss, and de novo DSA during the study period. De novo DSA was defined as the new appearance of antibodies against mismatched donor human leukocyte antigen (HLA) not present at baseline.

[7] = design: method as in PMID 34246485; conditions: result in words; cited from earlier work
[8] = Tacrolimus blood trough level (12 h post-dose, chemiluminescent immunoassay) in the randomized trial of tegoprazan vs pantoprazole; assay type: in vivo, human (kidney transplant recipients); conditions: 12-week follow-up in KTRs; result in words
Excerpt: as §1, §2, §3, §4

[9] = Baseline, higher score = poorer quality of life

COc1c(C)c2c(c(O)c1C/C=C(\C)CCC(=O)O)C(=O)OC2 [Mycophenolate, mycophenolate]
Mycophenolate trough level ([1]; P-CAB group (tegoprazan 50 mg, n = 26), Baseline): 2.3 ± 1.4 µg/mL
Mycophenolate trough level ([1]; P-CAB group (tegoprazan 50 mg, n = 26), Week 4): 2.5 ± 1.1 µg/mL
Mycophenolate trough level ([1]; P-CAB group (tegoprazan 50 mg, n = 26), Week 8): 2.8 ± 1.8 µg/mL
Mycophenolate trough level ([1]; P-CAB group (tegoprazan 50 mg, n = 26), Week 12): 2.7 ± 1.4 µg/mL
Mycophenolate trough level ([1]; PPI group (pantoprazole 20 mg, n = 25), Baseline): 2.6 ± 1.3 µg/mL
Mycophenolate trough level ([1]; PPI group (pantoprazole 20 mg, n = 25), Week 4): 2.7 ± 1.1 µg/mL
Mycophenolate trough level ([1]; PPI group (pantoprazole 20 mg, n = 25), Week 8): 2.7 ± 2.4 µg/mL
Mycophenolate trough level ([1]; PPI group (pantoprazole 20 mg, n = 25), Week 12): 2.6 ± 1.4 µg/mL
Time in therapeutic range (TTR), P-CAB vs PPI group [2]: comparable between the two groups

COc1ccnc(C[S+]([O-])c2nc3ccc(OC(F)F)cc3[nH]2)c1OC (centres unmarked) [PPI, pantoprazole]
Effect on trough levels of tacrolimus and cyclosporine ([3]; 12 solid organ transplant patients, five consecutive days of therapy): did not affect
Effect on serum trough levels of tacrolimus ([3]; liver transplant recipients, co-administration over one year): does not influence
RDQ score ([4]; Baseline): 3.2 ± 3.3
GERD-HRQL score [4, 9]: 2.8 ± 2.3
GERD-HRQL score ([4]; Week 4): 0.7 ± 1.2
RDQ score ([4]; Week 4): 0.3 ± 0.9
GERD-HRQL score ([4]; Week 8): 0.9 ± 1.8
RDQ score ([4]; Week 8): 0.4 ± 1.0
GERD-HRQL score ([4]; Week 12): 0.5 ± 1.1
RDQ score ([4]; Week 12): 0.7 ± 2.0
AE: Abdominal discomfort [5]: 2 (8.0) number (%)
AE: Arthralgia [5]: 0 (0.0) number (%)
AE: COVID-19 [5]: 2 (8.0) number (%)
AE: Constipation [5]: 0 (0.0) number (%)
AE: Diarrhea [5]: 0 (0.0) number (%)
AE: Headache [5]: 1 (4.0) number (%)
AE: Hypertension [5]: 0 (0.0) number (%)
AE: Hypoglycemia [5]: 0 (0.0) number (%)
AE: Myalgia [5]: 1 (4.0) number (%)
AE: Nausea, vomiting [5]: 0 (0.0) number (%)
AE: Productive cough, sputum [5]: 0 (0.0) number (%)
AE: Pyrexia [5]: 1 (4.0) number (%)
AE: Toothache [5]: 1 (4.0) number (%)
AE: Upper respiratory tract infection [5]: 1 (4.0) number (%)
AE: Urinary tract infection [5]: 1 (4.0) number (%)
AE: Vertigo [5]: 1 (4.0) number (%)
Participants with AEs [5]: 7 (28.0) number (%)
Participants with SAEs [5]: 0 (0.0) number (%)
Withdrawal due to AEs [5]: 0 (0.0) number (%)
Overall incidence of AEs [5]: 28.0%
eGFR ([6]; Baseline): 57.7 ± 14.9 mL/min/1.73 m^2
eGFR ([6]; Week 4): 60.1 ± 14.8 mL/min/1.73 m^2
eGFR ([6]; Week 8): 63.6 ± 14.1 mL/min/1.73 m^2
eGFR ([6]; Week 12): 60.6 ± 14.7 mL/min/1.73 m^2
Allograft Loss [6]: 0 number
BPAR [6]: 0 number

Cc1nc2cc(C(=O)N(C)C)cc(O[C@H]3CCOc4cc(F)cc(F)c43)c2[nH]1 [P-CAB, tegoprazan]
Effect on blood trough level of mycophenolate ([1]; 12-week follow-up in KTRs, result in words): does not alter
RDQ score ([4]; Baseline): 4.7 ± 4.7
GERD-HRQL score [4, 9]: 4.9 ± 4.3
GERD-HRQL score ([4]; Week 4): 0.9 ± 1.4
RDQ score ([4]; Week 4): 1.0 ± 2.1
GERD-HRQL score ([4]; Week 8): 0.7 ± 1.0
RDQ score ([4]; Week 8): 0.6 ± 1.2
GERD-HRQL score ([4]; Week 12): 0.7 ± 1.6
RDQ score ([4]; Week 12): 0.7 ± 1.9
Effect of food intake on pharmacokinetic and pharmacodynamic properties [7]: unaffected by food intake
Effect on blood trough level of tacrolimus [8]: does not alter
AE: Abdominal discomfort [5]: 3 (11.5) number (%)
AE: Arthralgia [5]: 1 (3.8) number (%)
AE: Constipation [5]: 2 (7.7) number (%)
AE: Diarrhea [5]: 5 (19.2) number (%)
AE: Headache [5]: 0 (0.0) number (%)
AE: Hypertension [5]: 4 (15.4) number (%)
AE: Hypoglycemia [5]: 1 (3.8) number (%)
AE: Myalgia [5]: 0 (0.0) number (%)
AE: Nausea, vomiting [5]: 3 (11.5) number (%)
AE: Productive cough, sputum [5]: 4 (15.4) number (%)
AE: Pyrexia [5]: 0 (0.0) number (%)
AE: Toothache [5]: 0 (0.0) number (%)
AE: Upper respiratory tract infection [5]: 2 (7.7) number (%)
AE: Urinary tract infection [5]: 0 (0.0) number (%)
AE: Vertigo [5]: 0 (0.0) number (%)
Participants with AEs [5]: 15 (57.7) number (%)
Participants with SAEs [5]: 2 (7.7) number (%)
Withdrawal due to AEs [5]: 0 (0.0) number (%)
Cases of serious adverse events (SAEs) ([5]; none related to the study drug): two
Overall incidence of AEs [5]: 57.7%
AE: COVID-19 ([5]; human, in vivo): 0 (0.0) number (%)
eGFR ([6]; Baseline): 62.8 ± 17.1 mL/min/1.73 m^2
eGFR ([6]; Week 4): 61.8 ± 13.0 mL/min/1.73 m^2
eGFR ([6]; Week 8): 60.6 ± 12.8 mL/min/1.73 m^2
eGFR ([6]; Week 12): 63.5 ± 16.5 mL/min/1.73 m^2
Allograft Loss [6]: 0 number
BPAR [6]: 0 number
